Source: article PMC8493129, “Design and Synthesis of New Quinoxaline Derivatives as Potential Histone Deacetylase Inhibitors Targeting Hepatocellular Carcinoma: In Silico, In Vitro, and SAR Studies” (Frontiers in Chemistry, 2021)

Key:
[1] = system: HuH-7 liver cancer cell line; assay: Anti-proliferative activity (MTT / SRB assay), HuH-7; type: cell-based, human; settings: for IC50: Homo sapiens, mean of three separate experiments
Method: (§1) The new quinoxaline derivatives of the five series: 6, 7, 8, 9, and 10 were evaluated for their potential anti-proliferative activity against two liver cancer cell lines (HepG-2 and HuH-7) obtained from the American Type Culture Collection.

[2] = system: HepG-2 liver cancer cell line; assay: Anti-proliferative activity (MTT / SRB assay), HepG-2; type: cell-based, human; settings: for IC50: Homo sapiens, HepG2, mean of three separate experiments
Method: as §1

[3] = system: Bcl-2; assay: Anti-apoptotic marker level (Bcl-2) in HepG-2 cells; type: cell-based, human; settings: control 5.048 pg/ml
Method: (§2) The method was performed in detail as previously explained ([Eliaa et al., 2020]).

[4] = target: HDAC4 (Homo sapiens, UniProt P56524); assay: Histone deacetylase inhibition, homogeneous fluorescence release assay
[5] = system: Bax; assay: Apoptotic marker level (Bax) in HepG-2 cells; type: cell-based, human; settings: control 24.37 pg/ml
Method: as §2

[6] = target: HDAC1 (Homo sapiens, UniProt Q13547); assay: Histone deacetylase inhibition, homogeneous fluorescence release assay
[7] = target: T1, HDAC6 (Homo sapiens, UniProt Q9UBN7); assay: as above
T1 sequence (Q9UBN7 1-1215): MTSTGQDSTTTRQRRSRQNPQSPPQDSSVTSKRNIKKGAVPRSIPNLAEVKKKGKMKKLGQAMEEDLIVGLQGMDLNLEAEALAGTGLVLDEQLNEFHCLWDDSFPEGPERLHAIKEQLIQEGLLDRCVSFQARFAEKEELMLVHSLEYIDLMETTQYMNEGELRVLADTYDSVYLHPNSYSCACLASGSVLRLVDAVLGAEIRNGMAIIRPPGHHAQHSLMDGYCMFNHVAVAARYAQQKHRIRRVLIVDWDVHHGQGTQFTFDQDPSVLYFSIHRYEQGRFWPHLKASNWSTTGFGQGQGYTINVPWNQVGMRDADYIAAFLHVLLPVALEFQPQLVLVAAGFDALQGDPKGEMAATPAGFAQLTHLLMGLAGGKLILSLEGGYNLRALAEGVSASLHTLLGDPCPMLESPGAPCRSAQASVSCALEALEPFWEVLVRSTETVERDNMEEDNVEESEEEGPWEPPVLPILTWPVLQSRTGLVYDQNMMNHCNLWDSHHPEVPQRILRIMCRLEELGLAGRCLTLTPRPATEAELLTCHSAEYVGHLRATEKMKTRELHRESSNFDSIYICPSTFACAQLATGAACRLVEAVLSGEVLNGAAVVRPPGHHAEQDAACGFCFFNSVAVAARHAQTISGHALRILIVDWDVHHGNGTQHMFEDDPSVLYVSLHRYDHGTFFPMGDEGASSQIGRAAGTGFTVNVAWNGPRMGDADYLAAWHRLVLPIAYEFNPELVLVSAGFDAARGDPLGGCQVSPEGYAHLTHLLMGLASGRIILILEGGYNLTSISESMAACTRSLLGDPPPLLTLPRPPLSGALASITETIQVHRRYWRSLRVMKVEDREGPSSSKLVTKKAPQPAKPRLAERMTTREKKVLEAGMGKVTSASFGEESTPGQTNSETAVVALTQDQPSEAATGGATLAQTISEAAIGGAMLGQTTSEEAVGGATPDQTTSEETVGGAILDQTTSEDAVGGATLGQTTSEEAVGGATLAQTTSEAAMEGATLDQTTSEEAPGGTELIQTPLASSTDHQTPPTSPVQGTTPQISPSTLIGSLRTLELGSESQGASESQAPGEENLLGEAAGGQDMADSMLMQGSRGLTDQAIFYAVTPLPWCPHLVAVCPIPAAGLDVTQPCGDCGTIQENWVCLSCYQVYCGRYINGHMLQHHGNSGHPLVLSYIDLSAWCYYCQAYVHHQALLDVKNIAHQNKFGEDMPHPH

[8] = system: HepG-2 and HuH-7 liver cancer cell lines; assay: Anti-proliferative activity, statements covering both cell lines; type: cell-based, human; settings: class by IC50 on HepG-2 and HuH-7
Method: as §1

Chain of HDAC1 (Q13547 whole entry): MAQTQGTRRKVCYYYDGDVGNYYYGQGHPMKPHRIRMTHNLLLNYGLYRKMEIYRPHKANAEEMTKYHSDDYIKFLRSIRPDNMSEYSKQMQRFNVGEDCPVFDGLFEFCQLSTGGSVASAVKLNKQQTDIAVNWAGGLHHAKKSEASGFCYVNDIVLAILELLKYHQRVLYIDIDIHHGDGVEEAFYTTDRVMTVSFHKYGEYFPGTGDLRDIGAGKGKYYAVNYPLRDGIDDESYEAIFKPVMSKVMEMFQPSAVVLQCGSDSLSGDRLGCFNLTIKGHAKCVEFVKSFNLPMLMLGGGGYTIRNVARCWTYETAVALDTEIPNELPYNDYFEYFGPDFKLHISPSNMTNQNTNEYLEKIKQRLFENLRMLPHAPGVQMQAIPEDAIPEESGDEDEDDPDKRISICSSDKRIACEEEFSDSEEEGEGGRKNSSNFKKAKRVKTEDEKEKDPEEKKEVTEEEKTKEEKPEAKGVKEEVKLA
Chain of HDAC4 (P56524 whole entry): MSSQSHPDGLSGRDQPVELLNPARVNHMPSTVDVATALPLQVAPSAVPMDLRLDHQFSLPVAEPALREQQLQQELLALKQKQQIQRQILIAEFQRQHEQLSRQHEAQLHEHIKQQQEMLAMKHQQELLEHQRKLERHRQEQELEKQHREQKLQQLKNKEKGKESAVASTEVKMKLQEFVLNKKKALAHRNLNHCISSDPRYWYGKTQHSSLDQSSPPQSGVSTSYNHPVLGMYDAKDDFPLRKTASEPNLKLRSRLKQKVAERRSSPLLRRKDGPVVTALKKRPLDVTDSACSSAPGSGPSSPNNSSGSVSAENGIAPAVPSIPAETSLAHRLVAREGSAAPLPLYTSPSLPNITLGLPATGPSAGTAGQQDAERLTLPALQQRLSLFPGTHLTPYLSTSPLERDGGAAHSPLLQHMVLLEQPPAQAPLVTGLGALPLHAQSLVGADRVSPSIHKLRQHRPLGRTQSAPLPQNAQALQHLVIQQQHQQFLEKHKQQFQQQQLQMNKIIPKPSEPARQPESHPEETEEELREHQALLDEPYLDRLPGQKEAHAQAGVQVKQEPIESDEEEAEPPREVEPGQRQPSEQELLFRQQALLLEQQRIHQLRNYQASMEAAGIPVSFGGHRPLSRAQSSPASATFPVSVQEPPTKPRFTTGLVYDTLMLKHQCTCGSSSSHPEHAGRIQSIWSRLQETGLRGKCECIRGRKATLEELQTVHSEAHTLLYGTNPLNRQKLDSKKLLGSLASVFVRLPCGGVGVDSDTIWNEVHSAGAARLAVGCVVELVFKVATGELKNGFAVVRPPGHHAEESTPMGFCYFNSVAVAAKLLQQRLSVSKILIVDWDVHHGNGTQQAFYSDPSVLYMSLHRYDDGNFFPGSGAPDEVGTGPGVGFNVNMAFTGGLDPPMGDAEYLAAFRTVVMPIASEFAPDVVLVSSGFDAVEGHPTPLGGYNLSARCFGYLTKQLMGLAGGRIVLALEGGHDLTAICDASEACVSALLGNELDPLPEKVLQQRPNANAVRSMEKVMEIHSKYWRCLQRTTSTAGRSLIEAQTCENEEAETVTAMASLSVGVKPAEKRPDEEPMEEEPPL

SMILES | IC50 [1] [µM] | IC50 ([2]; HepG-2) [µM] | IC50 [4] [µM] | IC50 [6] [µM] | IC50 [7] [µM] | Bcl-2 [3] [pg/mL] | Bax [5] [pg/mL] | further results
Clc1ccccc1C=NNc1nc2ccccc2nc1Cl [Compound 6 b, 2-Chloro-3-(2-(2-chlorobenzylidene)hydrazinyl)quinoxaline] | 18.7 | 15.8 | – | – | – | – | – | –
Clc1ccc(C=NNc2nc3ccccc3nc2Cl)c(Cl)c1 [Compound 6 d, 2-Chloro-3-(2-(2,4-dichlorobenzylidene)hydrazinyl)quinoxaline] | 9.47 | 6.16 | 3.25 | 3.52 | 4.28 | 2.711 | 179.2 | –
Clc1cccc(Cl)c1C=NNc1nc2ccccc2nc1Cl [Compound 6 e, 2-Chloro-3-(2-(2,6-dichlorobenzylidene)hydrazinyl)quinoxaline] | 17.5 | 13.5 | – | – | – | – | – | –
COc1ccccc1C=NNc1nc2ccccc2nc1Cl [Compound 6 f, 2-Chloro-3-(2-(2-methoxybenzylidene)hydrazinyl)quinoxaline] | 8.52 | 6.63 | 3.44 | 3.29 | 5.32 | 2.705 | 185.7 | –
COc1ccc(C=NNc2nc3ccccc3nc2Cl)cc1OC [Compound 6 g, 2-Chloro-3-(2-(3,4-dimethoxybenzylidene)hydrazinyl)quinoxaline] | 3.05 | 2.16 | 1.64 | 2.17 | 3.81 | 1.687 | 247.5 | –
COc1cc(C=NNc2nc3ccccc3nc2Cl)cc(OC)c1OC [Compound 6 h, 2-Chloro-3-(2-(3,4,5-trimethoxybenzylidene)hydrazinyl)quinoxaline] | 14.7 | 11.8 | – | – | – | – | – | –
O=[N+]([O-])c1cccc(C=NNc2nc3ccccc3nc2Cl)c1 [Compound 6 i, 2-Chloro-3-(2-(3-nitrobenzylidene)hydrazinyl)quinoxaline] | 65.7 | 63.9 | – | – | – | – | – | –
O=[N+]([O-])c1ccc(C=NNc2nc3ccccc3nc2Cl)cc1 [Compound 6 j, 2-Chloro-3-(2-(4-nitrobenzylidene)hydrazinyl)quinoxaline] | 25.8 | 15.9 | – | – | – | – | – | –
CC(=NNc1nc2ccccc2nc1Cl)c1ccccc1O [Compound 7 b, 2-(1-(2-(3-Chloroquinoxalin-2-yl)hydrazono)ethyl)phenol] | 6.19 | 4.03 | 2.51 | 2.67 | 5.24 | 2.371 | 217.9 | cytotoxic (anti-proliferative) activity class [8]: very strong (1–10 (very strong))
Oc1ccc2ccccc2c1C=NNc1nc2ccccc2nc1Cl [Compound 8, 1-((2-(3-Chloroquinoxalin-2-yl)hydrazono)methyl)naphthalen-2-ol] | 6.14 | 3.88 | 2.09 | 1.72 | 4.37 | 1.839 | 233.6 | fold increase in activity versus corresponding member 11, HuH-7 ([1]; ratio of IC50 values): 3.30 fold; cytotoxic (anti-proliferative) activity class [8]: very strong (1–10 (very strong)); fold increase in activity versus corresponding member 11, HepG-2 ([2]; ratio of IC50 values, HepG-2): 4.76 fold; fold more active than compound 9 ([2]; ratio of IC50 values, stated for the two cell lines, figure fits HepG-2): 2.98 fold
O=C1Nc2ccccc2/C1=N\Nc1nc2ccccc2nc1Cl [Compound 9, 2-(2-(3-Chloroquinoxalin-2-yl)hydrazono)indolein-3-one] | 16.4 | 11.6 | – | – | – | – | – | cytotoxic (anti-proliferative) activity class [8]: strong (11–20 (strong))
COc1nc2ccccc2nc1NN=Cc1ccc(Cl)cc1 [Compound 10 a, 2-(2-(4-Chlorobenzylidene)hydrazinyl)-3-methoxyquinoxaline] | 57.8 | 53.9 | – | – | – | – | – | –
COc1nc2ccccc2nc1NN=Cc1c(Cl)cccc1Cl [Compound 10 c, 2-(2-(2,6-Dichlorobenzylidene)hydrazinyl)-3-methoxyquinoxaline] | 65.3 | 60.5 | – | – | – | – | – | –
COc1ccc(C=NNc2nc3ccccc3nc2OC)cc1OC [Compound 10 e, 2-(2-(3,4-Dimethoxybenzylidene)hydrazinyl)-3-methoxyquinoxaline] | 50.6 | 55.7 | – | – | – | – | – | –
COc1cc(C=NNc2nc3ccccc3nc2OC)cc(OC)c1OC [Compound 10 f, 2-Methoxy-3-(2-(3,4,5-trimethoxybenzylidene)hydrazinyl)quinoxaline] | 48.8 | 56.9 | – | – | – | – | – | –
COc1nc2ccccc2nc1NN=Cc1ccc([N+](=O)[O-])cc1 [Compound 10 g, 2-Methoxy-3-(2-(4-nitrobenzylidene)hydrazinyl)quinoxaline] | 19.1 | 13 | – | – | – | – | – | –
COc1nc2ccccc2nc1NN=Cc1ccccc1O [Compound 10 h, 2-((2-(3-Methoxyquinoxalin-2-yl)hydrazono)methyl)phenol] | 6.72 | 5.56 | 3.15 | 3.54 | 7.21 | 2.673 | 205.4 | –
COc1nc2ccccc2nc1NN=Cc1c(O)ccc2ccccc12 [Compound 11, 1-((2-(3-Methoxyquinoxalin-2-yl)hydrazono)methyl)naphthalen-2-ol] | 20.3 | 18.5 | – | – | – | – | – | cytotoxic (anti-proliferative) activity class [8]: strong (11–20 (strong))

Second part, led by results:

IC50 [1] [µM] | IC50 ([2]; HepG-2) [µM] | IC50 [4] [µM] | IC50 [6] [µM] | IC50 [7] [µM] | SMILES | Bcl-2 [3] [pg/mL] | Bax [5] [pg/mL] | further results
18.2 | 14.3 | – | – | – | Clc1nc2ccccc2nc1NN=Cc1ccccc1 [Compound 6 a, 2-(2-Benzylidenehydrazinyl)-3-chloroquinoxaline] | – | – | –
6.52 | 7.71 | 3.81 | 4.18 | 6.29 | Oc1ccccc1C=NNc1nc2ccccc2nc1Cl [Compound 6 k, 2-((2-(3-Chloroquinoxalin-2-yl)hydrazono)methyl)phenol] | 2.914 | 164.3 | –
9.27 | 5.39 | 2.79 | 3.29 | 4.09 | CN(C)c1ccc(C=NNc2nc3ccccc3nc2Cl)cc1 [Compound 6 l, 4-((2-(3-Chloroquinoxalin-2-yl)hydrazono)methyl)-N,N-dimethylaniline] | 2.519 | 219.7 | –
37.1 | 28.5 | – | – | – | CC(=NNc1nc2ccccc2nc1Cl)c1ccccc1 [Compound 7 a, 2-Chloro-3-(2-(1-phenylethylidene)hydrazinyl)quinoxaline] | – | – | –
35.2 | 32.1 | – | – | – | COc1nc2ccccc2nc1NN=Cc1ccc(Cl)cc1Cl [Compound 10 b, 2-(2-(2,4-Dichlorobenzylidene)hydrazinyl)-3-methoxyquinoxaline] | – | – | –
27.3 | 28.6 | – | – | – | COc1ccccc1C=NNc1nc2ccccc2nc1OC [Compound 10 d, 2-Methoxy-3-(2-(2-methoxybenzylidene)hydrazinyl)quinoxaline] | – | – | –
22.7 | 23 | – | – | – | COc1nc2ccccc2nc1NN=Cc1ccc(N(C)C)cc1 [Compound 10 i, 4-((2-(3-Methoxyquinoxalin-2-yl)hydrazono)methyl)-N,N-dimethylaniline] | – | – | –
9.2 ± 0.65 | 8.25 | – | – | – | COc1cccc2c1C(=O)c1c(O)c3c(c(O)c1C2=O)C[C@@](O)(C(=O)CO)C[C@@H]3O[C@H]1C[C@H](N)[C@H](O)[C@H](C)O1 [Doxorubicin, reference compound] | – | – | –
